Reference: publication PMC10562414, “GLP-1R signaling neighborhoods associate with the susceptibility to adverse drug reactions of incretin mimetics” (Nature Communications, 2023)

Assays:
[1] = tested on: HEK293 cells without GLP-1R (phosphoproteome); assay: Phosphoproteomics, untransfected / mock-transfected control cells, 30 min; type: cell-based, human; details: mock transfection, 1 μM, vs vehicle
Experimental: (§1) P values were calculated by a two-sided unpaired t-test.
(§2) HEK293 cells (350,000 cells/mL) were transfected in suspension using 3 μg of linear PEI (MW 25,000) per 1 μg of plasmid DNA and seeded onto poly-D-lysine-coated 60 mm dishes at a density of 1,750,000 cells per dish. After a 24-h incubation, cells were washed twice with PBS and placed in starvation media (DMEM with penicillin/streptomycin). After a 48-h incubation, cells were washed twice with HBSS and maintained in the same buffer. […] Cell extracts were prepared as previously described[64]–[66]. In short, 200 μL of the lysis buffer preheated at 95 °C (4% sodium dodecyl sulfate in 50 mM Tris adjusted to pH 8.5) was added to the cells. The samples were then denatured at 95 °C for 10 min, placed on ice and then sonicated using a probe sonicator (3 sec on, 3 sec off pulse, 1 min, 30% amplitude) (Branson). Lysate protein concentration was determined using the Pierce bicinchoninic acid assay kit (Thermo Fisher Scientific) according to the manufacturer’s instructions. The lysates were reduced using 5 mM dithiothreitol for 1 h at room temperature and alkylated using 15 mM iodoacetamide for 1 h at room temperature in the dark. Proteins were precipitated and digested on beads using MagReSyn Amine magnetic beads (ReSyn Biosciences) according to the manufacturer’s instructions. Protein digestion was conducted overnight at 37 °C with lysyl endopeptidase (LysC, Wako) (1:150 LysC/protein, w/w) and trypsin (1:300 trypsin/protein, w/w). 20% TFA, 2 M glycolic acid in 80% ACN were added to the samples at a 1:1 ratio for phosphopeptide enrichment using MagReSyn TiO2 magnetic beads (ReSyn Biosciences) according to the manufacturer’s instructions. The enriched phosphopeptides were dried overnight in a SpeedVac, resuspended into 5% formic acid (FA), desalted using StageTip (Thermo Fisher Scientific) according to the manufacturer’s instructions and dried in a SpeedVac. The experiment was performed in biological triplicates.
(§3) All parameters and settings regarding the acquisition of the proteomics data can be found in Supplementary Data 11, 12. For data acquisition, the instrument was set to peptide mode, with a trapping pressure set as low (2mTorr). An EASY-Spray Source (Thermo Fisher Scientific) was used and the column temperature was maintained with the integrated, temperature-controlled heater at 55 °C throughout the experiment. For the data presented in Fig. 5d, the column was heated at 50 °C following the manufacturer’s instructions (IonOpticks).
(§4) Acquired raw files were converted to mzML format by MSConvert (version 3.0.21258)[67] applying peak picking of the mass spectra with the vendor-provided algorithm (Thermo Fisher Scientific). The mzML files were analyzed using the FragPipe GUI v18 for both library and DIA search. […] Trypsin with up to 2 missed cleavages was set as digestion enzyme, oxidation of methionine, acetylation of the N-terminus and phosphorylation on serine, threonine and tyrosine (maximal occurrence was set to three) were set as variable modifications. Carbamidomethylation of cysteine residues was set as a fixed modification. Peptide length was restricted to 7 to 50 amino acids, and 500 to 5000 Da. […] DIA files were analyzed by DIA-NN 1.8.1[71], [72] using the previously generated library and monitor-command mode. Peptide quantification was performed based on the fragment elution profiles from the MS2 level (area under the curve). […]

[2] = target: GLP-1R (Homo sapiens, UniProt P43220); assay: ebBRET pathway activation (effector membrane translocation, 15 pathways) at the plasma membrane (rGFP-CAAX); type: cell-based; parameters: Potency (logEC50): scale not given here; details: for Efficacy (normalized) / Emax / Potency (logEC50): Plasma membrane; for Efficacy (normalized): Fig. 2c; for Potency (logEC50): Fig. 2d
Sequence of GLP-1R (P43220 24-463): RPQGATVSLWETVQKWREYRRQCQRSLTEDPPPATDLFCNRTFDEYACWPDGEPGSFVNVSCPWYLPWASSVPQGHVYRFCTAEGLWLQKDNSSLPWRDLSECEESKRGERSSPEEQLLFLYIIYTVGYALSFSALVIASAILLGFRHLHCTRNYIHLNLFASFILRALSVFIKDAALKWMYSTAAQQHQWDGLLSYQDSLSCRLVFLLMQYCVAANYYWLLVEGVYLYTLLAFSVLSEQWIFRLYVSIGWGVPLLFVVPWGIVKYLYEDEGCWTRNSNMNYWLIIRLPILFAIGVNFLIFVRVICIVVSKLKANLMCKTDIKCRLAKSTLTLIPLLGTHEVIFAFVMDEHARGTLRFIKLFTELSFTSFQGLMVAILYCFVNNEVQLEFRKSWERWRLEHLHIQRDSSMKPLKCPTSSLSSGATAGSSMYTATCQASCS

[3] = tested on: GLP-1R-expressing HEK293 cells (phosphoproteome); assay: Phosphoproteomics, GLP-1R-transfected cells, 30 min (experiment 2); type: cell-based, human; details: GLP transfection, 1 μM
Experimental: as §1, §2, §3, §4

[4] = plasma membrane rGFP-CAAX, HEK293, PDZRhoGEF-RlucII, agonist incubation 0 min, as tabulated for polar area diagram, n=3-6
[5] = plasma membrane rGFP-CAAX, HEK293, Rap1Gap-RlucII, agonist incubation 0 min, as tabulated for polar area diagram, n=3-6
[6] = plasma membrane rGFP-CAAX, HEK293, Rap1Gap-RlucII, agonist incubation 0 min, normalized to the highest responding drug, F test P < 0.00625, n=3-6
[7] = plasma membrane rGFP-CAAX, HEK293, p63RhoGEF-RlucII, agonist incubation 0 min, as tabulated for polar area diagram, n=3-6
[8] = plasma membrane rGFP-CAAX, HEK293, p63RhoGEF-RlucII, agonist incubation 0 min, normalized to the highest responding drug, F test P < 0.00625, n=3-6

For `N#Cc1ccc(COc2cccc(C3CCN(Cc4nc5ccc(C(=O)O)cc5n4C[C@@H]4CCO4)CC3)n2)c(F)c1` [Danuglipron], the “log2.foldchange, EIF3J S11” value ([1]; p 0.0145494, n = 3) was -0.5603, the “log2.foldchange, VPS51 S18 (peptide ...EAPER)” value ([1]; p 0.168261, n = 3) was -0.2294 and the “log2.foldchange, VPS51 S18 (peptide ...EAPERR)” value ([1]; p 0.181448, n = 3) was 0.6501. For the same compound, the “log2.foldchange, VPS51 S10” value ([1]; p 0.364227, n = 3) was 0.2093, the “log2.foldchange, PABPN1 S19” value ([1]; p 0.447985, n = 3) was 0.07218 and the “pathway activation at the plasma membrane, in words” value ([2]; 15 pathways, HEK293, ebBRET) was “biased away from βARR towards Gs and Gi/o”. For the same compound, the “Efficacy (normalized)” value ([2]; GRK2/Gβγ) was 0.6954, the Emax ([2]; GRK/Gβγ) was 0.5067 and the Emax ([2]; Gα11) was 0. The “Efficacy (normalized)” value ([2]; Gα11) was 0, the “Potency (logEC50)” value ([2]; Gα11) was 0 and the Emax ([2]; Gα12) was 0. The “Efficacy (normalized)” value ([2]; Gα12) was 0, the “Potency (logEC50)” value ([2]; Gα12) was 0 and the Emax ([2]; Gα13) was 0. The “Efficacy (normalized)” value ([2]; Gα13) was 0, the “Potency (logEC50)” value ([2]; Gα13) was 0 and the Emax ([2]; Gα14) was 0. The “Efficacy (normalized)” value ([2]; Gα14) was 0, the “Potency (logEC50)” value ([2]; Gα14) was 0 and the Emax ([2]; Gα15) was 0. The “Efficacy (normalized)” value ([2]; Gα15) was 0, the “Potency (logEC50)” value ([2]; Gα15) was 0 and the Emax ([2]; Gαi1) was 0.0218. The “Efficacy (normalized)” value ([2]; Gαi1) was 0.3729, the “Potency (logEC50)” value ([2]; Gαi1) was 0.3182 and the Emax ([2]; Gαi2) was 0.2304. The “Efficacy (normalized)” value ([2]; Gαi2) was 0.9309, the “Potency (logEC50)” value ([2]; Gαi2) was 0.1266 and the Emax ([2]; Gαi3) was 0.03983. For the same compound, the “Efficacy (normalized)” value ([2]; Gαi3) was 0.6445, the “Potency (logEC50)” value ([2]; Gαi3) was 0.2454 and the Emax ([2]; GαoA) was 0. For the same compound, the “Efficacy (normalized)” value ([2]; GαoA) was 0, the “Potency (logEC50)” value ([2]; GαoA) was 0 and the Emax ([2]; GαoB) was 0.4329. The “Efficacy (normalized)” value ([2]; GαoB) was 0.5975, the “Potency (logEC50)” value ([2]; GαoB) was 0.326 and the Emax ([2]; Gαq) was 0. The “Efficacy (normalized)” value ([2]; Gαq) was 0, the “Potency (logEC50)” value ([2]; Gαq) was 0 and the Emax ([2]; Gαs) was 1.832. For the same compound, the “Efficacy (normalized)” value ([2]; Gαs) was 0.7714, the “Potency (logEC50)” value ([2]; Gαs) was 0.5221 and the Emax ([2]; Gαz) was 0.2013. The “Efficacy (normalized)” value ([2]; Gαz) was 0.678, the “Potency (logEC50)” value ([2]; Gαz) was 0.3391 and the Emax ([2]; βARR) was 0.3843. The “Efficacy (normalized)” value ([2]; βARR2) was 0.2947, the “Efficacy (normalized), GRK2/Gβγ” value ([2]; plasma membrane rGFP-CAAX, HEK293, GRK2-D110A-RlucII, agonist incubation 0 min, normalized to the highest responding drug, F test P < 0.00625, n=3-6) was 0.6954 and the “Potency (logEC50), Gα12” value [2, 4] was 0. For the same compound, the “Potency (logEC50), Gα13” value [2, 4] was 0, the “Efficacy (normalized), Gα13” value ([2]; plasma membrane rGFP-CAAX, HEK293, PDZRhoGEF-RlucII, agonist incubation 0 min, normalized to the highest responding drug, F test P < 0.00625, n=3-6) was 0 and the “Potency (logEC50), Gαi1” value [2, 5] was 0.3182. For the same compound, the “Potency (logEC50), Gαi2” value [2, 5] was 0.1266, the “Potency (logEC50), Gαi3” value [2, 5] was 0.2454 and the “Potency (logEC50), GαoA” value [2, 5] was 0. The “Potency (logEC50), GαoB” value [2, 5] was 0.326, the “Potency (logEC50), Gαz” value [2, 5] was 0.3391 and the “Efficacy (normalized), Gαi1” value [2, 6] was 0.3729. For the same compound, the “Efficacy (normalized), Gαi2” value [2, 6] was 0.9309, the “Efficacy (normalized), Gαi3” value [2, 6] was 0.6445 and the “Efficacy (normalized), GαoA” value [2, 6] was 0. The “Efficacy (normalized), GαoB” value [2, 6] was 0.5975, the “Efficacy (normalized), Gαz” value [2, 6] was 0.678 and the “Potency (logEC50), Gαs” value ([2]; plasma membrane rGFP-CAAX, HEK293, Rluc8-mGs, agonist incubation 0 min, as tabulated for polar area diagram, n=3-6) was 0.5221. The “Efficacy (normalized), Gαs” value ([2]; plasma membrane rGFP-CAAX, HEK293, Rluc8-mGs, agonist incubation 0 min, normalized to the highest responding drug, F test P < 0.00625, n=3-6) was 0.7714, the “Potency (logEC50), Gα11” value [2, 7] was 0 and the “Potency (logEC50), Gα14” value [2, 7] was 0. For the same compound, the “Potency (logEC50), Gα15” value [2, 7] was 0, the “Potency (logEC50), Gαq” value [2, 7] was 0 and the “Efficacy (normalized), Gα11” value [2, 8] was 0. The “Efficacy (normalized), Gα14” value [2, 8] was 0, the “Efficacy (normalized), Gα15” value [2, 8] was 0 and the “Efficacy (normalized), Gαq” value [2, 8] was 0. The “Efficacy (normalized), βARR2” value ([2]; plasma membrane rGFP-CAAX, HEK293, β-arrestin-2-RlucII, agonist incubation 0 min, normalized to the highest responding drug, F test P < 0.00625, n=3-6) was 0.2947, the “log2.foldchange, PABPN1 S19” value ([3]; vs time-matched vehicle, p […], n = 3) was 1.128 and the “log2.foldchange, VPS51 S13” value ([3]; vs vehicle, p 0.15884, n = 3) was -0.5399. For the same compound, the “log2.foldchange, EIF3J S20” value ([3]; vs vehicle, p 0.656982, n = 3) was -0.08041, the “log2.foldchange, EIF3J S11” value ([3]; vs vehicle, p 0.693473, n = 3) was -0.5463 and the “log2.foldchange, VPS51 S18” value ([3]; vs vehicle, p 0.842243, n = 3) was 0.02396.
